“Also recorded” adds a separate entry of the source. No end group written: not given here. *: point of attachment. Stearoyl = CCCCCCCCCCCCCCCCCC(=O)*
Legend:
Akt = Akt phosphorylation (immunoblot anti-Akt pS473) in C2C12 myotubes; format: cell-based, mouse; conditions: peptide incubated 8 hours (FIG. 6)
Method: In particular: HBD1 SEQ ID NO: 73 (C18:0-HLGLEEPKK). The Akt pathway is utilized by both insulin and IGF1 to ultimately induce GLUT4 translocation to the cell membrane to facilitate the uptake and metabolism of glucose.
For signaling studies the cells were prepared the same way except 6-well plates were used. After 6 days incubation in differentiating medium, the cells were washed with serum-free medium. The various treatments were then added in serum free medium containing 0.1% BSA. HBD1 peptides were added and incubated for 8 hours. When utilizing IGF-I, incubation was for 15 minutes after IGF-1 addition. Following incubation the cells were lysed in RIPA buffer and sonicated. The cell lysate was centrifuged and the supernatant analyzed for either Akt or AMPK by SDS PAGE using a 10% gel followed by immunoblotting with the appropriate antibody.
To examine the intracellular transduction pathways utilized by the HBD1 peptides, following treatment with HBD1 peptide SEQ ID NO: 73 (C18:0-HLGLEEPKK), cell lysate proteins were separated by SDS PAGE and immunoblotted with anti-Akt pS473 antibodies.

ob/ob mice = assay: Glucose telemetry and IPGTT in glucose-telemetered ob/ob mice, 28 days of treatment; format: in vivo, mouse; conditions: for glucose intolerance (3-hour IPGTT profile): glucose telemetered ob/ob mice, 1 and 3 mg/kg s.c. twice daily, 28 days, glucose 1 g/kg i.p., vs vehicle; for 16-hour mean blood glucose levels: day 27, normal fed conditions, vs baseline (Day -1) and vehicle
Method: FIG. 2A: 3-hour intraperitoneal glucose tolerance test profiles after 28 days of acylated HBD1 (3-11) fragment treatment. (n=5-8 in each group; p value <0.0001 at both doses vs VHL), Two-way ANOVA with multiple comparison, ****p<0.0001; FIG. 2B: fasting blood glucose levels (average value within 10 min prior to IPGTT) after 28 days of acylated HBD1 (3-11) fragment treatment. (n=5-8 in each group; p value <0.005 at the 3 mg/kg dose vs VHL), Unpaired two-tailed t-test vs VHL, ***p<0.005; FIG. 2C: Areas under the curve of the 3-hour intraperitoneal glucose tolerance test profiles after 28 days of acylated HBD1 (3-11) fragment treatment. (n=5-8 in each group), Unpaired two-tailed t-test vs VHL,*p<0.05, ****p<0.0001.
FIG. 3A: 16-hour mean blood glucose levels before (Day −1) and after 27 days of acylated HBD1 (3-11) fragment treatment. (n=5-8 in each group; **p value <0.001 at the 3 mg/kg dose vs VHL); FIG. 3B: Change from baseline in 16-hour mean blood glucose level after 27 days of acylated HBD1 (3-11) fragment treatment. (n=5-8 in each group; **p value <0.01 at the 3 mg/kg dose vs VHL).
To further assess the effects of HBD1 peptides on glucose and insulin metabolisms, basal blood glucose and glucose response to an intraperitoneal glucose tolerance test (IPGTT) were assessed in glucose-telemetered obese ob/ob mice after twice daily administration of HBD peptides for 28 consecutive days. Implantation of glucose telemetry device (HD-XG, Data Science International) was carried out according to known protocols.
A dose of HBD peptide fragment of SEQ ID NO: 73 (C18:0-HLGLEEPKK) was administered twice daily at 8-hour±1 hour interval between the two daily administrations. 24 V-Lepob/J (Ob/Ob) male mice (The Jackson Laboratory, Farmington, Conn. USA) were administered subcutaneously with vehicle (NaCl 0.9%) (Control group) or with the peptide at 1 and 3 mg/kg (Test groups) (n=5-8 animals for each group) twice daily for 28 days. The first day of dosing was designated as Day 1. Bolus injection was carried out using a sterile syringe and the needle was introduced subcutaneously, 2 to 4 injection sites were used in rotation. The hair of the animals on the injection area was clipped prior to the first injection and then as necessary during the treatment period. The volume administered was 5 mL/kg/administration. Individual dose volumes were calculated using the latest body weight. On day 27, 16-hour mean blood glucose levels were assessed in normal fed conditions. On day 28, fasted (4 hours) mice were injected intraperitoneally with glucose at 1 g/kg. Plasma blood glucose profile (expressed as mg/dL) was recorded every minute up to 3-hour post glucose injection.
Intraperitoneal glucose tolerance test (IPGTT)—On the morning of the IGPTT day (day 28), 2-hour fasted animals were treated with vehicle or with the HBD fragment. Glucose solution was administered 2 hours±15 minutes post-dosing (vehicle or a peptide as set forth in SEQ ID NO: 73 (C18:0-HLGLEEPKK). Blood glucose was monitored from 10 minutes before (fasting condition) to 3-hour post-glucose challenge. Food was re-introduced 4 hours post-glucose challenge. The second treatment of the day (the HBD fragment or vehicle) was performed 2 hours after food re-introduction.

[1] = test system: C2C12 mouse skeletal muscle myotubes; assay: 3H-2-deoxyglucose uptake by fully differentiated C2C12 myotubes; format: cell-based
Method: In particular: HBD1 SEQ ID NO: 73 (C18:0-HLGLEEPKK) at 0.8 μM, 1.5 μM, and 2.3 μM; or 1.5 μM SEQ ID NO: 73 (C18:0-HLGLEEPKK) for 2, 4, and 16 hours prior to testing glucose uptake.
The studies were performed using cultured, fully differentiated C2C12 mouse skeletal muscle myotubes. The cells were prepared by growing C2C12 cells to confluent density in DMEM with 25 mM glucose and 10% fetal bovine serum in 24 well plates. At this time, the medium was changed to differentiation medium (DMEM with 25 mM glucose and 2% horse serum) for 6 days with medium changed every third day. The various treatments were diluted in serum-free medium and, after washing the cells with serum-free medium, were added to the cells and incubated for 2 hours or alternative times, depending on the treatment. At the end of incubation period, the media was removed and 1.0 ml of glucose-free Krebs ringer bicarbonate buffer (pH 7.4), containing the same treatments, was added and incubation continued for 10 minutes. At the end of the 10 min incubation period, ^3H-2-deoxyglucose ([…]) (specific activity=8 Ci/mmole) was added directly to all wells, and the incubation continued for an additional […]. The wells were then rinsed three times with ice cold phosphate buffered saline, the cells were extracted with 0.5 N NaOH, and the ^3H-2-deoxyglucose content of the cell lysate quantitated by scintillation counting.

C18:0-HLGLEEPKK (Stearoyl-HLGLEEPKK) [SEQ ID NO: 73]
phosphorylated Akt (pS473) (Akt): dose-related increase in phosphorylated Akt; also recorded: dose-dependent phosphorylation (activation) of the Akt pathway | glucose intolerance (3-hour IPGTT profile) (ob/ob mice): improved glucose intolerance in a dose-dependent manner | glucose intolerance (3-hour IPGTT profile) (ob/ob mice; listed as acylated HBD1 (3-11) fragment): improves glucose intolerance | effect on fasting glucose levels and glucose excursion following IPGTT at the high dose (ob/ob mice; ob/ob mice, 3 mg/kg twice daily, 4 weeks): marked effect | glucose excursion following IPGTT (ob/ob mice; ob/ob mice, after 4 weeks (28 days), 1 and 3 mg/kg twice daily): decreased | fasting glucose levels (ob/ob mice; ob/ob mice, after 4 weeks (28 days), average within 10 min prior to IPGTT, 1 and 3 mg/kg twice daily): decreased fasting glucose levels | 16-hour mean blood glucose levels (ob/ob mice; ob/ob mice): markedly decrease 16-hour average blood glucose levels | 16-hour mean blood glucose levels (ob/ob mice; ob/ob mice, listed as acylated HBD1 (3-11) fragment): improves glucose intolerance | glucose uptake by C2C12 myotubes, dose dependence (FIG. 5A) ([1]; 0.8 μM, 1.5 μM and 2.3 μM, vs vehicle-treated controls): stimulated increased glucose uptake as compared with vehicle-treated controls in both a dose- and time-dependent manner | glucose uptake by C2C12 myotubes, time dependence (FIG. 5B) ([1]; 1.5 μM for 2, 4 and 16 hours): time-dependent manner | glucose uptake by C2C12 myotubes with insulin, separate experiment (FIG. 8) ([1]; 1.5 μM plus insulin): act additively with insulin; also recorded: in an additive manner with insulin | glucose uptake by C2C12 myotubes, separate experiment (FIG. 8) ([1]; 1.5 μM, alone): increased glucose uptake | glucose uptake by C2C12 myotubes in combination with insulin (FIG. 5C) ([1]; peptide plus insulin): additive increase in glucose uptake
